Test results from PubChem BioAssay (NCI).
Where “and” joins values, the source holds several entries; their conditions need not be identical. Equal values may be shown once.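 Values below derive from 48-hour exposures of cells grown in 96-well plates, with endpoints linearly interpolated between the two concentrations bracketing the appropriate inhibition level. GI50 is the concentration that inhibits growth by half. TGI is the concentration that stops growth completely.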

Key:
Assay in all cases: NCI tumour cell line growth inhibition, 48 h
P388/ADR leukemia = tested on: P388/ADR leukemia
DLD-1 colon = tested on: DLD-1 colon
HOP-18 NSCLC = tested on: HOP-18 NSCLC
XF 498 CNS = tested on: XF 498 CNS
M19-MEL melanoma = tested on: M19-MEL melanoma
P388 leukemia = tested on: P388 leukemia
SN12K1 renal = tested on: SN12K1 renal
SNB-78 CNS = tested on: SNB-78 CNS
DMS 114 small cell lung = tested on: DMS 114 small cell lung
KM20L2 colon = tested on: KM20L2 colon
LXFL 529 NSCLC = tested on: LXFL 529 NSCLC

| SMILES | TGI (P388/ADR leukemia) | TGI (DLD-1 colon) | TGI (HOP-18 NSCLC) | TGI (XF 498 CNS) | TGI (M19-MEL melanoma) | TGI (P388 leukemia) | TGI (SN12K1 renal) | TGI (SNB-78 CNS) | TGI (DMS 114 small cell lung) | TGI (KM20L2 colon) | TGI (LXFL 529 NSCLC) | GI50 (P388/ADR leukemia) | GI50 (DLD-1 colon) | GI50 (HOP-18 NSCLC) | GI50 (M19-MEL melanoma) | GI50 (P388 leukemia) | GI50 (SN12K1 renal) | GI50 (SNB-78 CNS) | GI50 (DMS 114 small cell lung) | GI50 (KM20L2 colon) |
| --- | --- | --- | --- | --- | --- | --- | --- | --- | --- | --- | --- | --- | --- | --- | --- | --- | --- | --- | --- | --- |
| C=C1C(=O)C[C@@]23CCC[C@@]12CC(O)C3 (stereo partly drawn) | 32.4 µM | 54.8 µM | 37.4 µM | 41.1 µM | > 70.2 µM | 25.3 µM | 39.6 µM | 99 µM | 38.3 µM | 47.9 µM |  |  |  |  |  |  |  |  |  |  |
| COc1cc2cc3c4c(cc(OC)c(OC)c4c2cc1OC)CCN3C(=O)OCCBr |  | > 100 µM |  | > 100 µM | > 100 µM |  |  | > 100 µM |  | > 100 µM |  |  |  |  |  |  |  |  |  |  |
| COc1cc2c(c(OC)c1OC)-c1ccc(SC)c(=O)cc1[C@@H](NC(=O)c1ccc(C#N)cc1)CC2 |  | > 100 µM |  |  | > 100 µM |  |  | 83.7 µM | < 0.01 µM | < 0.01 µM | 18.3 µM |  |  |  |  |  |  |  |  |  |
| CCN(CC)c1ccc(C(=C2C=CC(=[N+](CC)CC)C=C2)c2ccccc2)cc1 |  | 0.193 µM |  | 0.0391 µM | 0.158 µM |  |  | 0.237 µM | 0.208 µM | 0.117 µM | 0.115 µM |  |  |  |  |  |  |  |  |  |
| Cc1c(-c2coc(-c3ccc(Cl)cc3)n2)c(=O)n(-c2ccccc2)n1C |  | > 100 µM |  | > 100 µM | > 100 µM |  |  | > 100 µM |  | > 100 µM | > 100 µM |  |  |  |  |  |  |  |  |  |
| CC(=O)Nc1ccc(C(=O)N2N=C(C)/C(=C/c3cccc(O)c3)C2=O)cc1 |  | > 100 µM |  | > 100 µM | > 100 µM |  |  |  | > 100 µM |  |  |  |  |  |  |  |  |  |  |  |
| CC(=O)c1c(O)c(C)c(O)c2c1OC1=CC(=O)C(C(C)=O)C(=O)C12C (stereo not drawn) | 44.1 µM and 61.5 µM | 29.9 µM and 69 µM | 10.6 µM and 67.2 µM | 0.807 µM and 0.835 µM | 44.4 µM and 79.3 µM | 26.3 µM and 60.3 µM | 19.4 µM and 39.3 µM | 48.6 µM and 80.4 µM | 29.9 µM and 58.3 µM | 16.9 µM and 65.3 µM |  | 5.92 µM and 20.1 µM | 4.9 µM and 16.1 µM | 3.28 µM and 14.6 µM | 5.4 µM and 24.9 µM | 3.74 µM and 23.8 µM | 4.99 µM and 14.1 µM | 8.87 µM and 28.8 µM | 6.22 µM and 18.5 µM | 4.99 µM and 27 µM |
| Fc1nc(F)nc(-c2c3ccccc3c3n2CCS3)n1 |  | > 100 µM |  | > 100 µM | > 100 µM |  |  | > 100 µM | > 100 µM | > 100 µM | > 100 µM |  |  |  |  |  |  |  |  |  |
| COc1ccc(CC2C(=O)NC(C)C(=O)N(C)C3Cc4ccc(cc4)Oc4cc(ccc4O)CC(C(=O)NC(C)C(=O)NC(C)C(=O)N2C)N(C)C3=O)cc1 (stereo not drawn) | 20.6 µM | 1.09 µM |  | 0.0224 µM | 0.0192 µM | 0.0177 µM |  | 0.0256 µM |  | 0.49 µM |  |  |  |  |  |  |  |  |  |  |
| O=C(CCN1CCCCC1CO)Nc1ccc2c(c1)C(=O)c1ccc(NC(=O)CCN3CCCCC3CO)cc1C2=O (stereo not drawn) |  |  |  |  | 29.3 µM |  |  | 34.6 µM | 30.9 µM | 76.4 µM | 9.71 µM |  |  |  |  |  |  |  |  |  |
| CSc1nc2c(ncn2C2OCC(O)C(O)C2O)c(=O)[nH]1 (stereo not drawn) | > 100 µM | > 100 µM | > 100 µM | > 100 µM | > 100 µM | > 100 µM | > 100 µM | > 100 µM | > 100 µM | > 100 µM |  |  |  |  |  |  |  |  |  |  |
| NC(CO)c1ccccc1 (stereo not drawn) |  | > 100 µM | 96.1 µM | > 100 µM |  |  |  | > 100 µM | > 100 µM | > 100 µM | > 100 µM |  |  |  |  |  |  |  |  |  |
